Patent US11512090B2, “Muscarinic acetylcholine M1 receptor antagonists” (PIPELINE THERAPEUTICS, INC., priority 2018, dated 2022)
Where two headings read alike, the source gives them in different places.

Experiments:
Assay type in all cases: cell-based
human M1 receptor = molecular target: T1, human M1 receptor (Homo sapiens, UniProt P11229); experiment: In vitro functional assay of muscarinic acetylcholine receptor activity (aequorin calcium flux, antagonist mode vs EC80 acetylcholine), M1
T1 sequence (P11229 1-460): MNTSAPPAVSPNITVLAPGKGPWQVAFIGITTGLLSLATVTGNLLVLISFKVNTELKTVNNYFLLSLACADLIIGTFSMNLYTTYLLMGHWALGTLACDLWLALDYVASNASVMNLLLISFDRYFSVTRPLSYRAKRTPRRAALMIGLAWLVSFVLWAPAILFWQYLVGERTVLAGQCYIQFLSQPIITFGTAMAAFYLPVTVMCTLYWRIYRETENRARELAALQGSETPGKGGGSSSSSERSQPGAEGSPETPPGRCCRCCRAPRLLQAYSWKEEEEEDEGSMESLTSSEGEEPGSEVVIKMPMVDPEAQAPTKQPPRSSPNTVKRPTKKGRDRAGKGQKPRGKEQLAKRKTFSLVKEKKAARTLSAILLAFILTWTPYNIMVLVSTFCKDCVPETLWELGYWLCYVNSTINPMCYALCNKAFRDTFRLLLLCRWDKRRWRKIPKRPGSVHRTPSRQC
Protocol: (§1) CHO-K1 cells stably expressing human M1 receptor with Aequorin (Perkin Elmer) were grown in F12 media, 10% FBS with 0.4 mg/mL geneticin and […]. Cells were grown to confluence and frozen down to be assayed at a later date. On the day of the experiment cells were thawed in a 37° C. water bath, resuspended in DMEM/HAM's F12 with HEPES (Invitrogen)+0.1% protease-free BSA (assay buffer), and spun down to remove freezing media. After centrifugation, supernatant was removed and 12 mL of assay buffer was added. Coelenterazine h (Promega) was added to the cells at a final concentration of 5 uM and incubated for 4 hours at room temperature in the dark. Compound master plate-96 deep well (Corning) were formatted in a 8-point DRC in assay buffer with 0.2% DMSO at a starting concentration of 60 uM (2×). After 4 hours of incubation, cells were plated at a concentration of 5×10^5 cells/well in 96 well white-walled, tissue culture-treated, clear-bottom plates (VWR). Compounds were added to the daughter plate, and cells plus compound were incubated at room temperature for 30 minutes in the dark.
(§2) Calcium flux was measured using the FlexStation 3 (Molecular Devices). To measure the antagonist dose-response, the EC80 of Acetylcholine was injected to the daughter plate using the automated compound transfer function of the Flex Station, and the increase in luminescence was measured over time. Antagonist activity was analyzed as a concentration dependent decrease in the EC80 acetylcholine response. Dose response curves were generated using Prism (GraphPad Software). The IC50 of the compounds was calculated from the dose response curve.

M2 = molecular target: T2, M2 (Homo sapiens, UniProt P08172); experiment: In vitro functional assay of muscarinic acetylcholine receptor activity, M2; conditions: antagonist IC50 at M2; read-out: M2 IC50
T2 sequence (P08172 1-466): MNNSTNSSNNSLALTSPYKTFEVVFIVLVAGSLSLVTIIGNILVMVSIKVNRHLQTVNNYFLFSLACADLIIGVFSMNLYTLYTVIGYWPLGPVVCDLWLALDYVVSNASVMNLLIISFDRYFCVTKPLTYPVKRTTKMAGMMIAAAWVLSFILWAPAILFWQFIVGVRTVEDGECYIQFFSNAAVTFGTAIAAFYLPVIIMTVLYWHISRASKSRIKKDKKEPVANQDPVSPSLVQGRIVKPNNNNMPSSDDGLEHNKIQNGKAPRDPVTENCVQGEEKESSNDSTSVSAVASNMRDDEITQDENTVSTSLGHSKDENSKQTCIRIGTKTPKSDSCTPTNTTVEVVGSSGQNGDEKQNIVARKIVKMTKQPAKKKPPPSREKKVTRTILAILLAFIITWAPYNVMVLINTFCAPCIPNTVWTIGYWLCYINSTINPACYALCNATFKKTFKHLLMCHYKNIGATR
Protocol: [The procedure below names another target; the source lists this target under the same test.] as §1, §2

M3 = M3 (Homo sapiens, UniProt P20309); experiment: In vitro functional assay of muscarinic acetylcholine receptor activity, M3; conditions: antagonist IC50 at M3; read-out: M3 IC50
Protocol: [The procedure below names another target; the source lists this target under the same test.] as §1, §2

[1] = CHO-K1 cells stably expressing human M1 receptor with Aequorin, decrease in EC80 acetylcholine response, read-out: M1 IC50

Chain of M3 (P20309 whole entry): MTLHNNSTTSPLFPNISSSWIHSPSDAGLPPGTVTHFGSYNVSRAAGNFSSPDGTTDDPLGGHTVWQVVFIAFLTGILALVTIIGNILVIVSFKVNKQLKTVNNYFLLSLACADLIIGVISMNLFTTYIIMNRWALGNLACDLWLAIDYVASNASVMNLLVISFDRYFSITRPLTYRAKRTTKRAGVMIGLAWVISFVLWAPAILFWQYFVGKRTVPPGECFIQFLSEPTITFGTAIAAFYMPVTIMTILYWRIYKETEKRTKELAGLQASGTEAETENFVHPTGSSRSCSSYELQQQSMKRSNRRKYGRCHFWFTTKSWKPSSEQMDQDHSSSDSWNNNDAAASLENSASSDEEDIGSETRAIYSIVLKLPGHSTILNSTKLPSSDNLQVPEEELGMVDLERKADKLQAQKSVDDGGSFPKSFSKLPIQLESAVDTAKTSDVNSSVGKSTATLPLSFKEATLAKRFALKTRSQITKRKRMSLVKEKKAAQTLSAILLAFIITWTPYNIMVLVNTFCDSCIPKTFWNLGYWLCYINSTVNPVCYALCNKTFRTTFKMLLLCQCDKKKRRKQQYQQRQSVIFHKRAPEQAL

| IC50 (M2) [µM] | IC50 (M3) [µM] | IC50 (human M1 receptor; [1]) [µM] | SMILES | IC50 (human M1 receptor) [µM] |
| --- | --- | --- | --- | --- |
| 1 to 10 | > 10 | 0.1 to 1 | O=C(CCS(=O)(=O)c1cccc2ncsc12)N1CCN(c2ccncc2F)CC1 [Example 16, 3-(benzo[d]thiazol-7-ylsulfonyl)-1-(4-(3-fluoropyridin-4-yl)piperazin-1-yl)propan-1-one] |  |
| 1 to 10 | 1 to 10 | < 0.1 | Cc1cc(F)cnc1N1CCN(C(=O)CCS(=O)(=O)c2cccc3ncsc23)[C@@H](C)C1 [Example 18, 3-(1,3-benzothiazole-7-sulfonyl)-1-[(2S)-4-(5-fluoro-3-methylpyridin-2-yl)-2-methylpiperazin-1-yl]propan-1-one] |  |
| 0.1 to 1 | > 10 | < 0.1 | C[C@@H]1CN(c2ccncc2Cl)CCN1C(=O)CCS(=O)(=O)c1cccc2ncsc12 [Example 19, 3-(1,3-benzothiazole-7-sulfonyl)-1-[(2R)-4-(3-chloropyridin-4-yl)-2-methylpiperazin-1-yl]propan-1-one] |  |
| 0.1 to 1 | 1 to 10 | < 0.1 | C[C@H]1CN(c2ccnc(N)c2)CCN1C(=O)CCS(=O)(=O)c1cccc2ncsc12 [Example 21, (S)-1-(4-(2-aminopyridin-4-yl)-2-methylpiperazin-1-yl)-3-(benzo[d]thiazol-7-ylsulfonyl)propan-1-one] |  |
| 1 to 10 | 1 to 10 | 0.1 to 1 | O=C(CCS(=O)(=O)c1cccc2ncsc12)N1CCC(c2ccc(C(F)(F)F)cn2)CC1 [Example 22, 3-(1,3-benzothiazole-7-sulfonyl)-1-[4-[5-(trifluoromethyl)pyridin-2-yl]piperidin-1-yl]propan-1-one] |  |
| 0.1 to 1 | > 10 | < 0.1 | Cc1cc(C#N)ncc1N1CCN(C(=O)CCS(=O)(=O)c2cccc3ncsc23)[C@@H](C)C1 [Example 25, 5-[(3S)-4-[3-(1,3-benzothiazole-7-sulfonyl)propanoyl]-3-methylpiperazin-1-yl]-4-methylpyridine-2-carbonitrile] |  |
| > 10 | > 10 | 0.1 to 1 | C[C@H]1CN(c2c[nH]c(=O)cc2Cl)CCN1C(=O)CCS(=O)(=O)c1cccc2ncsc12 [Example 26, 5-[(3S)-4-[3-(1,3-benzothiazole-7-sulfonyl)propanoyl]-3-methylpiperazin-1-yl]-4-chloro-1,2-dihydropyridin-2-one] |  |
| 0.1 to 1 | 1 to 10 | < 0.1 | N#Cc1ccc(C2=CC3CCC2CN3C(=O)CCS(=O)(=O)c2cccc3ncsc23)nc1 (stereo not drawn) [Example 27, 6-{2-[3-(1,3-benzothiazole-7-sulfonyl)propanoyl]-2-azabicyclo[2.2.2]oct-5-en-5-yl}pyridine-3-carbonitrile] |  |
| 0.1 to 1 | 1 to 10 | < 0.1 | N#Cc1ccc(C2CC3CCC2CN3C(=O)CCS(=O)(=O)c2cccc3ncsc23)nc1 (stereo not drawn) [Example 28, 6-[2-[3-(1,3-benzothiazole-7-sulfonyl)propanoyl]-2-azabicyclo[2.2.2]octan-5-yl]pyridine-3-carbonitrile] |  |
| 1 to 10 | 1 to 10 | 0.1 to 1 | O=C(CCS(=O)(=O)c1cccc2ncsc12)N1CCC2(c3ccc(C(F)(F)F)cn3)CC2C1 (stereo not drawn) [Example 32, 3-(1,3-benzothiazole-7-sulfonyl)-1-{6-[5-(trifluoromethyl)pyridin-2-yl]-3-azabicyclo[4.1.0]heptan-3-yl}propan-1-one] |  |

Second part, the compound before the results:

| SMILES | IC50 (M2) [µM] | IC50 (M3) [µM] | IC50 (human M1 receptor; [1]) [µM] | IC50 (human M1 receptor) [µM] |
| --- | --- | --- | --- | --- |
| O=C(CNCCc1cccc2ncsc12)N1CC2CCC(C1)N2c1ccncc1F [Example 15, 2-[[2-(1,3-benzothiazol-7-yl)ethyl]amino]-1-[8-(3-fluoropyridin-4-yl)-3,8-diazabicyclo[3.2.1]octan-3-yl]ethan-1-one] | 1 to 10 | > 10 |  | 0.1 to 1 |
| COc1cnc2cccc(S(=O)(=O)CCCC(=O)N3CCN(c4ncc(F)cc4C)C[C@@H]3C)c2c1 [Example 17, (S)-1-(4-(5-fluoro-3-methylpyridin-2-yl)-2-methylpiperazin-1-yl)-4-((3-methoxyquinolin-5-yl)sulfonyl)butan-1-one] | 0.1 to 1 | 1 to 10 | 0.1 to 1 |  |
| C[C@@H]1CN(c2ccc(F)c(C#N)c2)CCN1C(=O)CCCc1cccc2ncccc12 [Example 23, (R)-2-fluoro-5-(3-methyl-4-(4-(quinolin-5-yl)butanoyl)piperazin-1-yl)benzonitrile] | 1 to 10 | 1 to 10 | < 0.1 |  |
| N#Cc1ccc(N2C3CCC2CN(C(=O)CCS(=O)(=O)c2cccc4ncsc24)C3)nc1 [Example 24, 6-{3-[3-(1,3-benzothiazole-7-sulfonyl)propanoyl]-3,8-diazabicyclo[3.2.1]octan-8-yl}pyridine-3-carbonitrile] | 0.1 to 1 | 0.1 to 1 |  | < 0.1 |
| N#Cc1ccc(N2C3CCC2CN(C(=O)CCNCc2cccc4ncsc24)C3)nc1 [Example 29, 6-[3-(3-{[(1,3-benzothiazol-7-yl)methyl]amino}propanoyl)-3,8-diaza-bicyclo[3.2.1]octan-8-yl]pyridine-3-carbonitrile] | 1 to 10 | 1 to 10 |  | < 0.1 |
| N#Cc1ccc(N2C3CCC2CN(C(=O)C2CC(NCc4cccc5ncsc45)C2)C3)nc1 (stereo not drawn) [Example 30, 6-[3-(3-{[(1,3-benzothiazol-7-yl)methyl]amino}cyclobutanecarbonyl)-3,8-diazabicyclo[3.2.1]octan-8-yl]pyridine-3-carbonitrile] | 1 to 10 | > 10 |  | 0.1 to 1 |
| N#Cc1ccc(N2C3CCC2CN(C(=O)C2CC(Cc4cccc5ncsc45)C2)C3)nc1 (stereo not drawn) [Example 31, 6-(3-{3-[(1,3-benzothiazol-7-yl)methyl]cyclobutanecarbonyl}-3,8-diazabicyclo[3.2.1]octan-8-yl)pyridine-3-carbonitrile] | 1 to 10 | 1 to 10 |  | < 0.1 |
| N#Cc1ccc(N2C3CCC2CN(C(=O)CCNCc2cccc4ncnn24)C3)nc1 [Example 33, 6-(3-{3-[({[1,2,4]triazolo[1,5-a]pyridin-5-yl}methyl)amino]propanoyl}-3,8-diazabicyclo[3.2.1]octan-8-yl)pyridine-3-carbonitrile] | 1 to 10 | > 10 |  | < 0.1 |
| N#Cc1ccc(N2C3CCC2CN(C(=O)CCNCc2c(F)ccc4nccn24)C3)nc1 [Example 34, 6-(3-{3-[({6-fluoroimidazo[1,2-a]pyridin-5-yl}methyl)amino]propanoyl}-3,8-diazabicyclo[3.2.1]octan-8-yl)pyridine-3-carbonitrile] | 1 to 10 | 1 to 10 |  | < 0.1 |
| N#Cc1ccc(N2C3CCC2CN(C(=O)CCN(Cc2cccc4ncsc24)C2CC2)C3)nc1 [Example 35, 6-[3-(3-{[(1,3-benzothiazol-7-yl)methyl](cyclopropyl)amino}propanoyl)-3,8-diazabicyclo[3.2.1]octan-8-yl]pyridine-3-carbonitrile] | 0.1 to 1 | 0.1 to 1 |  | < 0.1 |
| [2H]C([2H])(NCCC(=O)N1CC2CCC(C1)N2c1ccc(C#N)cn1)c1cccc2ncsc12 [Example 36, 6-[3-(3-[(benzo[d]thiazol-7-ylmethyl-d2)amino]propanoyl)-3,8-diazabicyclo[3.2.1]octan-8-yl]pyridine-3-carbonitrile] | 1 to 10 | 1 to 10 |  | < 0.1 |
| N#Cc1ccc(N2C3CCC2CN(C(=O)CCOCc2cccc4nccnc24)C3)nc1 [Example 37, 6-(3-{3-[(quinoxalin-5-yl)methoxy]propanoyl}-3,8-diazabicyclo[3.2.1]octan-8-yl)pyridine-3-carbonitrile] | 1 to 10 | > 10 |  | < 0.1 |
